Assay results from patent US10292991B2, “Small molecule therapeutic compounds that reduce the incidence of intracerebral hemorrhage and brain microhemorrhages” (St. Michaels Hospital, priority 2016, dated 2019).
Structures can show the parent of a compound that is named as a salt. Where two headings read alike, the source gives them in different places.

What was measured:
[1] = test system: β-Pix MO-induced hemorrhage in zebrafish; test: βPix morpholino-induced hemorrhage in zebrafish, rescue by drugs; assay type: in vivo, zebrafish (Danio rerio); settings: for Efficacy on β-Pix MO Hemorrhage: inhibition of β-Pix MO-induced hemorrhage
Procedure: (§1) Morpholino oligonucleotides (MOs) were custom-synthesized by Gene Tools (Carvalis, Oreg.); their sequences are shown in Table 1.
(§2) Danieau buffer (58 mM NaCl, 0.7 mM KCl, 0.4 mM MgSO4, 0.6 mM Ca(NO3)2, 5.0 mM HEPES, pH 7.6) was used to dilute the MO solutions to 0.2 mM final concentration. Individual wells were placed on a 1.0% agarose plate, in which the embryos were positioned. Afterwards, the MO solution was injected through the cell yolk into embryos of 1 to 4 cell-stage. The injected quantities varied from 0.5 to 15 ng.
(§3) bbhm292 zebrafish mutant has a hypomorphic mutation in βPix, resulting in ICH/BMH and hydrocephalus. The MO is βPixexon6-MO which blocks splicing of exon 6 and results in premature protein termination. […] Higher doses of βPixexon6-MO (up to 8 ng) result in a lack of blood circulation, and therefore no ICH/BMH was detected. Injection of 8 ng results in complete missplicing of βPix and therefore a null phenotype, whereas lower doses retain some normally spliced βPix. The βPixexon6-MO sequence is 5′-[…]-3′ [SEQ ID NO: 1]. 3Pixexon6-MO was injected into the embryos at the 1-2 cell stage, and compounds were added 12 hpf.
(§4) The first three morpholino pairs were good for the efficacy study. Efficacy assays were performed using Artemether (ARM, Sigma) and artemesunate (ART, GMP). […] Treating these morphants with the drugs rescued the ICH phenotype.

[2] = test system: bbh mutant zebrafish (mutation in βPix), spontaneous ICH; test: bbh (bubblehead) mutant genetic model of brain hemorrhage; assay type: in vivo, zebrafish (Danio rerio); settings: for EC50: read-out: EC50 to rescue brain hemorrhage, bbh Mutant Model
From the text: A specific zebrafish line with a gene mutation called bubblehead (bbh) was used. This line has spontaneous ICH. Bubblehead phenotype is caused by a mutation in βPix. Adult homozygous zebrafish were viable and fertile. […] More than 85% of zebrafish larvae display an ICH phenotype.

zebrafish larvae [3] = test: Toxicity assay in zebrafish larvae (heart beat, blood flow, cardiac edema); assay type: in vivo, zebrafish (Danio rerio)
Procedure: The embryos were collected and distributed into a 96-well plate in 0.5% DMSO, similar to efficacy assays. […] Heart beat and blood flow were ranked from 3 (normal heart beat or blood flow) to 0 (no heart beat or blood flow). Cardiac edema was ranked from 0 (normal heart without edema) to −3 (severe cardiac edema). […] The ratio of TC50/EC50 was calculated in each case.
Heart beat and blood flow were ranked from 3 (normal heart beat or blood flow) to 0 (no heart beat or blood flow). Cardiac edema was ranked from 0 (normal heart without edema) to −3 (severe cardiac edema). […] Data is expressed as mean±SEM from 3 experiments.

[4] = test system: brain hemorrhage induced by 1 μM atorvastatin in zebrafish; test: Atorvastatin-induced brain hemorrhage (ICH) model in zebrafish, rescue by drugs; settings: for Efficacy on atorvastatin Hemorrhage: ATV model induced by 1 μmol/L atorvastatin, inhibition of hemorrhage; for Result in the ATV zebrafish model: derivatives acquired from Sequoia Research Products
Procedure: Zebrafish were set up the night before the experiment day. In the morning of the experimental day, we put breeders together for mating and fertilization. 6 hours post-fertilization (hpf), statins was added into a 96-well plate holding 100 μl water with 7 to 8 fish eggs in each well, which was optimized through a serial pilot experiments. Statins were dissolved in DMSO and diluted with 0.5% of DMSO water into a working solution. 100 μl water containing 0.5% of DMSO was the medium for all wells in the final assessment.
For screening NIH compound libraries, 5 μM of each of the drugs from the library was added at 24 hpf into wells containing fish eggs treated with 1 μM ATV since 6 hpf. Hemorrhage positive control wells were treated with ATV but not treated with any drugs. Negative controls were not treated with any chemicals (fish with 0.5% of DMSO water). Geranylgeranyl pyrophosphate (GGPP, 4 mg/L) was used as positive rescue control.
Brain hemorrhage was assessed 72 hpf (66 hours after addition of statins) using stereomicroscopy by two observers. Percentage of brain hemorrhage was used as final readout. Compounds showing more than 70% of rescue of the brain hemorrhages in the initial test were re-tested to generate a final list of hits from the library.
All subsequent EC50 assays of positive compounds were performed with protocols established and optimized during the screening.

[5] = test system: Hmgcrb - splice morpholino-induced hemorrhage in zebrafish; test: Hmgcrb morpholino-induced hemorrhage in zebrafish, rescue by drugs; assay type: in vivo, zebrafish (Danio rerio)
Procedure: as §2, §4

[6] = test system: Cdh5 - exon2 morpholino-induced hemorrhage in zebrafish; test: Cdh5 (VE-cadherin) morpholino-induced hemorrhage in zebrafish, rescue by drugs; assay type: in vivo, zebrafish (Danio rerio); settings: result in words, no EC50
Procedure: as §2
Panels A & B: Stable EC junctions are maintained by a Cdc42-dependent and VE-cadherin-mediated cell-cell adhesion. VE cadherins are found on the surfaces of EC cell-cell junctions. VE-cadherins are associated with β- and α-catenins at their cytoplasmic domains, which connect them to the actin-based cytoskeleton (blue circles). Cdc42 belongs to the Rho-family of small guanosine triphosphatases (GTPases), which are the main regulators of VE-cadherin-based cell-cell adhesion. The functions of hmgcrb, βPix, and pak2a in regulating junctional stability in zebrafish are shown. HNGCR mediated GGPP biosynthesis regulates Cdc42 prenylation. βPix is a GEF that increases CDC42 affinity for GTP. Pak2 is an effector of Cdc42, which regulates actin filament organization.
Suppression of VE-cadherin induces hemorrhage.

CCM3 (Ccm3) mRNA = test: qRT-PCR of CCM3 mRNA in atorvastatin-treated zebrafish larvae; assay type: in vivo, zebrafish (Danio rerio); settings: 1 μmol/L atorvastatin alone
Procedure: qRT-PCR was used to assess relative expression of selected genes (an average of two biological trial and three technical replicates and each trial is a pool of 60 larvae/treatment), using β-actin as the housekeeping gene control. 3 dpf, Tg(Flk:GFP; Gata:dsRed) zebrafish larvae were used for RNA extraction and cDNA synthesis. Atorvastatin and drug treatment were performed as previously mentioned in drug screening. Total RNA was extracted from these larvae (a pool of 50-60 larvae/treatment) using the RNeasy extraction kit (Qiagen, Mississauga, ON, CAN) and treated with DNase. The concentration of total RNA was determined spectrophotometrically at 260/280 nm using a NanoDrop™ spectrophotometer. First-strand cDNA was synthesized from 1 μg of total RNA using random hexamer primers.
In each case, forward primer is shown on the top and reverse primer on the bottom.
PCR was carried out in a 20 μl total volume and included 1×PCR buffer, 1.25 mM MgCl2, 0.25 mM dNTP, 1 U Taq polymerase, 0.5 μmol/L forward, and reverse primers and 1 μl cDNA.

mice treated with LPS = test: Atorvastatin plus LPS in mice: mortality and large hemorrhages; assay type: in vivo; settings: for mortality: n=5
From the text: While the present invention has been described with reference to the specific embodiments thereof it should be understood by those skilled in the art that various changes may be made and equivalents may be substituted without departing from the true spirit and scope of the invention. In addition, many modifications may be made to adopt a particular situation, material, composition of matter, process, process step or steps, to the objective spirit and scope of the present invention. All such modifications are intended to be within the scope of the claims appended hereto.

[7] = test system: Pak2a - exon8 morpholino-induced hemorrhage in zebrafish; test: Pak2a morpholino-induced hemorrhage in zebrafish, rescue by drugs; assay type: in vivo, zebrafish (Danio rerio); settings: result in words
Procedure: as §2
Another MO was designed to block the splice-donor sites after exon 8 in pak2a. Pak2a is the gene mutated in the rhdmi149 zebrafish mutant that develops ICH/BMH.
Efficacy assays were performed using Artemether (ARM, Sigma) and artemesunate (ART, GMP).

zebrafish larvae [8] = test: Morpholino injection to induce hemorrhage in zebrafish larvae; assay type: in vivo; settings: for Hemorrhage: at optimum injected amount, 3 dpf larvae, n = 150-250 per condition
Procedure: as §1, §2, §3
Another MO was designed to block the splice-donor sites after exon 8 in pak2a. Pak2a is the gene mutated in the rhdmi149 zebrafish mutant that develops ICH/BMH. The pak2a-MO sequence is 5′-[…]-3′ (SEQ ID NO: 2). Eight pg of pak2a-MO was injected per embryo, resulting in […] of embryos with ICH/BMH with low mortality (FIGS. 12 and 14).
Next, optimum amount of each morpholino was determined. The goal was to induce an acceptable percentage of hemorrhage (ideally between 40-80%), without having toxicity from morpholino injection.

[9] = drug from Sequoia Research (UK)
[10] = drug from Sigma, 3 dpf larvae, drug added 24 hpf
[11] = Danio rerio, read-out: EC50 (in nmol/L) on atorfvastatin model (μmol/L)
[12] = Danio rerio, read-out: EC50 to rescue brain hemorrhage, Statin Model
[13] = n = 15-20 larvae per condition, 1-3 times per compound

## C[C@@H]1CC[C@H]2[C@@H](C)C(=O)O[C@@H]3O[C@]4(C)CC[C@@H]1[C@]32OO4 [Artemisinin]
[1]
  Efficacy on β-Pix MO Hemorrhage: +++++ (One + sign represents 20% inhibition on 1 μmol/L ATV or β-Pix MO-induced hemorrhage.)
[2]; Danio rerio
  EC50: 177 nM
Zebrafish larvae [3]; [9]
  TC50 (Blood flow): 5340 nM
  TC50 (Edema): 6347 nM
  TC50/EC50 ratio (Blood flow): (20.4)
  TC50/EC50 ratio (Edema): 24.2)
  TC50/EC50 ratio (Heart beat): 4.6e+007)
Zebrafish larvae [3]; drug from Sigma
  TC50/EC50 ratio (Blood flow): (13)
  TC50/EC50 ratio (Edema): (419)
  TC50/EC50 ratio (Heart beat): (104.5)
Zebrafish larvae [3]; [10]
  TC50 (Blood flow): 1058 nM
  TC50 (Edema): 34134 nM
  TC50 (Heart beat): 8501 nM
[4]
  Efficacy on atorvastatin Hemorrhage: +++++ (One + sign represents 20% inhibition on 1 μmol/L ATV or β-Pix MO-induced hemorrhage.)
  Result in the ATV zebrafish model: tested positive
[4]; [11]
  EC50: 95 nmol/L
[4]; [12]
  EC50: 81.3 nmol/L

## C[C@H]1[C@H](OC(=O)CCC(=O)O)O[C@@H]2O[C@@]3(C)CC[C@H]4[C@H](C)CC[C@@H]1[C@@]24OO3 [Artesunate]
[1]; Table 6, read-out: EC50 to rescue hemorrhage induced by βPix - exon6 morpholino
  EC50: 95.6 ± 27.9 nM
[2]; [13]
  EC50: 127 nM
[5]; Table 6
  EC50: 167 ± 9.3 nM
[6]
  Rescue of hemorrhage induced by Cdh5 - exon2 morpholino: Rescue effect
Zebrafish larvae [3]; GMP-Artesunate
  TC50 (Blood flow): 794.4 nM
  TC50 (Edema): 3196 nM
  TC50 (Heart beat): 2525 nM
Zebrafish larvae [3]; [9]
  TC50 (Blood flow): 1036 nM
  TC50 (Edema): 937.8 nM
  TC50 (Heart beat): 9539 nM
Zebrafish larvae [3]; [10]
  TC50 (Blood flow): 741.5 nM
  TC50 (Edema): 5367 nM
  TC50 (Heart beat): 8884 nM
[4]; read-out: EC50 to rescue brain hemorrhage, Statin Model, Table 4, n = 15-20 larvae per condition, three times per compound
  EC50: 182 nmol/L

## CC(C)c1c(C(=O)Nc2ccccc2)c(-c2ccccc2)c(-c2ccc(F)cc2)n1CC[C@@H](O)C[C@@H](O)CC(=O)O [Atorvastatin, atorvastatin calcium salt]
CCM3 (Ccm3) mRNA
  CCM3 transcription level (qRT-PCR) after inducing hemorrhage: decrease
Mice treated with LPS; atorvastatin 50 mg/kg in addition to LPS 5 mg/kg, 24 hours after treatments
  mortality: 100%
Mice treated with LPS; mouse, in vivo
  Number of large hemorrhages caused by LPS: significantly increased
Mice treated with LPS; statin alone, 24 hours
  mortality: did not cause any mortality

## C[C@H]1[C@@H](O)O[C@@H]2O[C@]3(C)CC[C@H]4[C@H](C)CC[C@@H]1[C@@]24OO3 [Dihydroartemisinin]
[1]
  Efficacy on β-Pix MO Hemorrhage: +++++ (One + sign represents 20% inhibition on 1 μmol/L ATV or β-Pix MO-induced hemorrhage.)
[2]; Danio rerio
  EC50: 107 nM
Zebrafish larvae [3]; [9]
  TC50 (Blood flow): 979.5 nM
  TC50 (Edema): 1021 nM
Zebrafish larvae [3]; [10]
  TC50 (Blood flow): 890 nM
  TC50 (Edema): 748.5 nM
[4]
  Efficacy on atorvastatin Hemorrhage: +++++ (One + sign represents 20% inhibition on 1 μmol/L ATV or β-Pix MO-induced hemorrhage.)
  Result in the ATV zebrafish model: tested positive
[4]; [11]
  EC50: 67 nmol/L
[4]; [12]
  EC50: 80.8 nmol/L

## C#C[C@]1(O)CC[C@H]2[C@@H]3CCc4cc(O)ccc4[C@H]3CC[C@@]21C [Ethynylestradiol]
[4]
  Efficacy on atorvastatin Hemorrhage: +++ (One + sign represents 20% inhibition on 1 μmol/L ATV or β-Pix MO-induced hemorrhage.)

## CCOC(=O)C1=C(C)NC(C)=C(C(=O)OCC)C1c1ccccc1/C=C/C(=O)OC(C)(C)C [Lacidipine]
[4]
  Efficacy on atorvastatin Hemorrhage: ++++ (One + sign represents 20% inhibition on 1 μmol/L ATV or β-Pix MO-induced hemorrhage.)

## CC(C)[C@]12O[C@H]1[C@@H]1O[C@]13[C@]1(O[C@H]1C[C@@]1(C)C4=C(CC[C@]31C)C(=O)OC4)[C@H]2O [Tripolide]
[1]
  Efficacy on β-Pix MO Hemorrhage: No effect
[4]
  Efficacy on atorvastatin Hemorrhage: ++++ (One + sign represents 20% inhibition on 1 μmol/L ATV or β-Pix MO-induced hemorrhage.)

## Artesunate
[1]; 5 μmol/L, compounds added 12 hpf
  ICH in βPixexon6-MO injected embryos: prevented ICH
[1]
  Efficacy on β-Pix MO Hemorrhage: +++++ (One + sign represents 20% inhibition on 1 μmol/L ATV or β-Pix MO-induced hemorrhage.)
[2]; [13]
  EC50: 140 nM
[2]; result in words
  Rescue of hemorrhage / ICH phenotype in bbh mutants: rescues the ICH phenotype
[7]
  ICH/BMH after treatment with pak2a-MO: dose-dependently reduced
[5]; result in words
  ICH/BMH after MO-mediated inhibition of hmgcrb: prevented
[6]
  Rescue of hemorrhage induced by Cdh5 - exon2 morpholino: rescue was observed
[4]
  Efficacy on atorvastatin Hemorrhage: +++++ (One + sign represents 20% inhibition on 1 μmol/L ATV or β-Pix MO-induced hemorrhage.)
[4]; read-out: EC50 (in nmol/L) on atorfvastatin model (μmol/L), Table 3, 1 μmol/L atorvastatin, 3 to 4 experiments
  EC50: 211 nmol/L

## Benidipine
[1]
  Efficacy on β-Pix MO Hemorrhage: ++++ (One + sign represents 20% inhibition on 1 μmol/L ATV or β-Pix MO-induced hemorrhage.)
[4]
  Efficacy on atorvastatin Hemorrhage: ++++ (One + sign represents 20% inhibition on 1 μmol/L ATV or β-Pix MO-induced hemorrhage.)

## Cdh5 - exon2: morpholino 5′-TACAAGACCGTCTACCTTTCCAATC-3′ (antisense; all phosphorodiamidate morpholino (PMO))
Zebrafish larvae [8]; at optimum injected amount (1.0 ng)
  Cardiac Edema: 35.0% (Cardiac Edema)
Zebrafish larvae [8]
  Hemorrhage: 39.4%

## GGTasel: morpholino 5′-CACGCGGTGTGTGGACTCACGGTCA-3′ (all phosphorodiamidate morpholino (PMO))
Zebrafish larvae [8]
  Hemorrhage: 11.4% (Faint)

## Hmgcrb - splice: morpholino 5′-AACTGCATTCATAAACTCACCCAGT-3′ (all phosphorodiamidate morpholino (PMO))
Zebrafish larvae [8]
  Hemorrhage: 67.9%

## Rap1b - exon3: morpholino 5′-AAATGATGCAGAACTTGCCTTTCTG-3′ (all phosphorodiamidate morpholino (PMO))
Zebrafish larvae [8]
  Hemorrhage: 30.8% (Faint)
